In patent publication US20230047816A1 (priority 2018, published 2023):

Biological target: Recombinant full length human PFKFB3 (Homo sapiens, UniProt Q16875)
Assay: PFKFB3 kinase activity assay (ADP production, ADP-Glo)

Recombinant full length human PFKFB3, sequence (Q16875 whole entry): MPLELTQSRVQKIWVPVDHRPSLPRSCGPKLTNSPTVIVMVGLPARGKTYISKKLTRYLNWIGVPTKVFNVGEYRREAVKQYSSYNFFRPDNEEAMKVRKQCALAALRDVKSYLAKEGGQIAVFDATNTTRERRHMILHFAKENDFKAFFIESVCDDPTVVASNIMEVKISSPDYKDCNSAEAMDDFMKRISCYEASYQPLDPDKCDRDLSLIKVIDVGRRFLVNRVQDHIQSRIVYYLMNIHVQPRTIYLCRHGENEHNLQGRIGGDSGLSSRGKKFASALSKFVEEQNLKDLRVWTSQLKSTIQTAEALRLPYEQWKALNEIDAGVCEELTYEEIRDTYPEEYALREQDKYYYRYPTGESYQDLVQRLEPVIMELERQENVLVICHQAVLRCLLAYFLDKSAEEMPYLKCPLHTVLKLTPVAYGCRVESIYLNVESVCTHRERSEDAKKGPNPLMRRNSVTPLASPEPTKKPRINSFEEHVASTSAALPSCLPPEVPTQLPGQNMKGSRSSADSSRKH

## CN(C)CCCOC(=O)c1ccc(-c2ccc(F)c(F)c2)cc1N1Cc2ccc(C(=O)NS(C)(=O)=O)cc2C1=O [Compound 124, 3′,4′-Difluoro-3-(6-methanesulfonylaminocarbonyl-1-oxo-1,3-dihydro-isoindol-2-yl)-biphenyl-4-carboxylic acid 3-dimethylamino-propyl ester]
  IC50: < 20000 nM

## O=C(O)c1ccc2c(c1)C(=O)N(c1ccc(-c3ccccc3)cc1-c1nnn[nH]1)C2=O [Example 2, 1,3-Dioxo-2-[3-(1H-tetrazol-5-yl)-1,1′-biphenyl-4-yl]-2,3-dihydro-1H-isoindole-5-carboxylic Acid]
  IC50: < 500 nM

## O=C(OCCN1CCCC1)c1cc(-c2ccccc2)ccc1N1C(=O)c2ccc(-c3c[nH]nn3)cc2C1=O [Compound 79, 4-[1,3-Dioxo-5-(1H-[1,2,3]triazol-4-yl)-1,3-dihydroisoindol-2-yl]biphenyl-3-carboxylic acid 2-pyrrolidin-1-yl-ethyl ester]
  IC50: 5000 to 20000 nM

## CC1(C)CCC(c2ccc(C(=O)O)c(NC(=O)c3cc(C(=O)O)c(F)cc3C(=O)O)c2)CC1 [Example 64, 2-{[2-carboxy-5-(4,4-dimethylcyclohexyl)phenyl]carbamoyl}-5-fluorobenzene-1,4-dicarboxylic acid]
  IC50: < 500 nM

## O=C(O)c1ccc(-c2ccc(F)c(F)c2)cc1N1Cc2ccc(-c3nn[nH]c3C(=O)c3ccccc3)cc2C1=O [compound 162, 3-(6-(5-benzoyl-1H-1,2,3-triazol-4-yl)-1-oxoisoindolin-2-yl)-3′,4′-difluorobiphenyl-4-carboxylic acid]
  IC50: 500 to 2000 nM

## O=C(O)c1cc(C(=O)O)c(C(=O)Nc2cc(-c3ccc(F)c(F)c3)ccc2O)cc1O [Example 27, 4-((3′,4′-difluoro-4-hydroxy-[1,1′-biphenyl]-3-yl)carbamoyl)-6-hydroxyisophthalic acid]
  IC50: < 500 nM

## COc1ccc(-c2c(C)sc(N3C(=O)c4ccc(C(=O)N[C@@H](Cc5c[nH]c6ccccc56)C(=O)O)cc4C3=O)c2C#N)cc1 [Example 17]
  IC50: 500 to 2000 nM

## COC(=O)c1ccc(-c2ccccc2)cc1N1C(=O)c2ccc(C(=O)NS(C)(=O)=O)cc2C1=O [Example 41]
  IC50: < 20000 nM

## COC(=O)c1cc(-c2ccccc2)c(OC)cc1N1C(=O)c2ccc(-c3c[nH]nn3)cc2C1=O [Example 38]
  IC50: 5000 to 20000 nM

## COc1ccc(-c2c(C)sc(N3C(=O)c4ccc(C(=O)N[C@@H](Cc5ccccc5)C(=O)O)cc4C3=O)c2C#N)cc1 [Compound 137, (2S)-2-({2-[3-Cyano-4-(4-methoxyphenyl)-5-methyl-thiophen-2-yl]-1,3-dioxo-2,3-dihydro-1H-isoindole-5-carbonyl}-amino)-3-phenylpropanoic acid]
  IC50: 500 to 2000 nM

## COc1ccc(-c2c(C)sc(N3C(=O)c4ccc(C(=O)N[C@H](C(=O)O)C(C)C)cc4C3=O)c2C#N)cc1 [Example 19]
  IC50: 5000 to 20000 nM

## O=C(O)c1cc(-c2ccccc2)ccc1N1C(=O)c2ccc(-c3cn(Cc4ccccc4)nn3)cc2C1=O [Example 29]
  IC50: 2000 to 5000 nM

## O=C(O)c1ccc2c(c1)C(=O)N(c1cc(-c3ccc(F)c(F)c3)ccc1C(=O)O)C2 [Compound 126, 2-(4-Carboxy-3′,4′-difluoro-biphenyl-3-yl)-3-oxo-2,3-dihydro-1H-isoindole-5-carboxylic acid]
  IC50: < 20000 nM

## O=C(O)c1cc(C(=O)Nc2cc(-c3ccc(F)c(F)c3)ccc2C(=O)O)c(C(=O)O)cc1O [Example 28, 2-({4-carboxy-3′,4′-difluoro-[1,1′-biphenyl]-3-yl}carbamoyl)-5-hydroxybenzene-1,4-dicarboxylic acid]
  IC50: < 500 nM

## CCCCS(=O)(=O)NC(=O)c1ccc2c(c1)C(=O)N(c1ccc(-c3ccccc3)cc1C(=O)O)C2=O [Example 24, 4-[5-(Butane-1-sulfonylaminocarbonyl)-1,3-dioxo-1,3-dihydroisoindol-2-yl]biphenyl-3-carboxylic Acid]
  IC50: 2000 to 5000 nM

## COC(=O)c1cc(-c2ccccc2)ccc1N1C(=O)c2ccc(-c3c[nH]nn3)cc2C1=O [Example 33]
  IC50: < 20000 nM

## O=C1c2ccc(-c3c[nH]nn3)cc2C(=O)N1c1ccc(-c2ccccc2)nc1O [Compound 89, 2-(2-Hydroxy-6-phenylpyridin-3-yl)-5-(1H-[1,2,3]triazol-4-yl)-isoindole-1,3-dione]
  IC50: < 20000 nM

## Cn1cncc1-c1ccc(N2C(=O)c3ccc(C(=O)O)cc3C2=O)c(C(=O)O)c1 [Compound 76, 2-[2-Carboxy-4-(3-methyl-3H-imidazol-4-yl)-phenyl]-1,3-dioxo-2,3-dihydro-1H-isoindole-5-carboxylic Acid]
  IC50: < 500 nM

## Nc1cc(C(=O)O)ccc1C(=O)Nc1cc(-c2ccccc2)ccc1C(=O)O [Example 4, 3-(2-amino-4-carboxybenzamido)-[1,1′-biphenyl]-4-carboxylic acid]
  IC50: < 20000 nM

## COc1ccc(-c2c(C)sc(NC(=O)c3cc(O)c(C(=O)O)cc3C(=O)O)c2C#N)cc1 [Example 33, 4-((3-cyano-4-(4-methoxyphenyl)-5-methylthiophen-2-yl)carbamoyl)-6-hydroxyisophthalic acid]
  IC50: < 500 nM

## Cc1cnc(N2C(=O)c3ccc(-c4c[nH]nn4)cc3C2=O)cc1-c1ccc(F)cc1F [Compound 90, 2-[4-(2,4-Difluoro-phenyl)-5-methyl-pyridin-2-yl]-5-(1H-[1,2,3]triazol-4-yl)-isoindole-1,3-dione]
  IC50: 2000 to 5000 nM

## COC(=O)c1ccc(-c2ccccc2)cc1N1C(=O)c2ccc(-c3nnn[nH]3)cc2C1=O [Example 44]
  IC50: 2000 to 5000 nM

## O=C(O)c1ccc2c(c1)C(=O)N(c1cc(-c3ccccc3)ccc1O)C2=O [Example 3, 2-(4-Hydroxy[1,1′-biphenyl]-3-yl)-1,3-dioxo-2,3-dihydro-1H-isoindole-5-carboxylic Acid]
  IC50: 500 to 2000 nM

## O=C(O)c1ccc2c(c1)C(=O)N(c1cc(-c3cc(F)c(F)cc3F)ccc1C(=O)O)C2=O [Compound 140, 2-(4-Carboxy-2′,4′,5′-trifluoro[1,1′-biphenyl]-3-yl)-1,3-dioxo-2,3-dihydro-1H-isoindole-5-carboxylic Acid]
  IC50: < 500 nM

## CS(=O)(=O)NC(=O)c1ccc2c(c1)C(=O)N(c1cc(-c3ccccc3)ccc1C(=O)O)C2 [Compound 104, 3-(6-Methanesulfonylaminocarbonyl-1-oxo-1,3-dihydroisoindol-2-yl)biphenyl-4-carboxylic Acid]
  IC50: < 500 nM

## CC(C)OC(=O)c1ccc(-c2ccc(F)c(F)c2)cc1N1Cc2ccc(C(=O)NS(C)(=O)=O)cc2C1=O [Compound 125, 3′,4′-Difluoro-3-(6-methanesulfonylaminocarbonyl-1-oxo-1,3-dihydro-isoindol-2-yl)-biphenyl-4-carboxylic acid isopropyl ester]
  IC50: < 20000 nM

## CNC(=O)c1cc(CO)ccc1C(=O)Nc1sc(C)c(-c2ccc(OC)cc2)c1C#N [Example 15, N1-[3-cyano-4-(4-methoxyphenyl)-5-methylthiophen-2-yl]-4-(hydroxymethyl)-N2-methylbenzene-1,2-dicarboxamide]
  IC50: < 20000 nM

## O=C1c2ccc(-c3c[nH]nn3)cc2C(=O)N1c1cc(-c2ccccc2)ccn1 [Compound 84, 2-(4-Phenylpyridin-2-yl)-5-(1H-[1,2,3]triazol-4-yl)-isoindole-1,3-dione]
  IC50: 5000 to 20000 nM

## NC(=O)c1ccc2c(c1)C(=O)N(c1ccc(-c3ccccc3)cc1C(=O)O)C2=O [Example 27]
  IC50: 2000 to 5000 nM

## CC1(C)CCC(c2ccc(C(=O)O)c(NC(=O)c3cc(F)c(C(=O)O)cc3C(=O)O)c2)CC1 [Example 63, 4-{[2-carboxy-5-(4,4-dimethylcyclohexyl)phenyl]carbamoyl}-6-fluorobenzene-1,3-dicarboxylic acid]
  IC50: < 500 nM

## O=C(O)c1ccc(-c2ccccc2)cc1N1C(=O)c2ccc(-c3nnn[nH]3)cc2C1=O [Compound 95, 3-[1,3-Dioxo-5-(1H-tetrazol-5-yl)-1,3-dihydroisoindol-2-yl]biphenyl-4-carboxylic Acid]
  IC50: < 500 nM

## CNCCOC(=O)c1cc(-c2c[nH]cn2)ccc1N1C(=O)c2ccc(C(=O)O)cc2C1=O [Compound 77, 2-[4-(1H-Imidazol-4-yl)-2-(2-methylaminoethoxycarbonyl)-phenyl]-1,3-dioxo-2,3-dihydro-1H-isoindole-5-carboxylic Acid]
  IC50: 500 to 2000 nM

## O=C(O)c1cc(C(=O)Nc2cc(-c3ccc(F)c(F)c3)ccc2O)c(C(=O)O)cc1O [Example 37, 2-({3′,4′-difluoro-4-hydroxy-[1,1′-biphenyl]-3-yl}carbamoyl)-5-hydroxybenzene-1,4-dicarboxylic acid]
  IC50: < 500 nM

## CN(C)CCOC(=O)c1ccc(-c2ccccc2)cc1N1C(=O)c2ccc(-c3c[nH]nn3)cc2C1=O [Example 66]
  IC50: 2000 to 5000 nM

## O=C(O)c1ccc(-c2ccccc2)cc1N1C(=O)c2ccc(-c3c[nH]nn3)cc2C1=O [Example 59]
  IC50: < 500 nM

## O=C(O)c1ccc2c(c1)C(=O)N(c1cc(-c3ccccc3)ccc1CO)C2=O [Example 11]
  IC50: 5000 to 20000 nM

## O=C(O)c1ccc2c(c1)C(=O)N(c1ccc(-c3c[nH]cn3)cc1C(=O)O)C2=O [Compound 75, 2-[2-Carboxy-4-(1H-imidazol-4-yl)-phenyl]-1,3-dioxo-2,3-dihydro-1H-isoindole-5-carboxylic Acid]
  IC50: < 500 nM

## NC(=O)c1ccc(-c2ccc(F)c(F)c2)cc1N1Cc2ccc(C(=O)O)cc2C1=O [Compound 119, 2-(4-Carbamoyl-3′,4′-difluorobiphenyl-3-yl)-3-oxo-2,3-dihydro-1H-isoindole-5-carboxylic acid]
  IC50: 5000 to 20000 nM

## NC(=O)c1ccc2c(c1)C(=O)N(c1cc(-c3ccc(F)c(F)c3)ccc1C(=O)O)C2 [compound 160, 3-(6-carbamoyl-1-oxoisoindolin-2-yl)-3′,4′-difluorobiphenyl-4-carboxylic acid]
  IC50: 5000 to 20000 nM

## O=C(O)c1ccc(-c2ccc(F)c(F)c2)cc1N1Cc2ccc(-n3cnnn3)cc2C1=O [Compound 122, 3′,4′-Difluoro-3-(1-oxo-6-tetrazol-1-yl-1,3-dihydroisoindol-2-yl)biphenyl-4-carboxylic Acid]
  IC50: 500 to 2000 nM

## Cc1cc(-c2ccccc2)cc(N2C(=O)c3ccc(-c4c[nH]nn4)cc3C2=O)n1 [Compound 88, 2-(6-Methyl-4-phenylpyridin-2-yl)-5-(1H-[1,2,3]triazol-4-yl)-isoindole-1,3-dione]
  IC50: 5000 to 20000 nM
